# Laboratory results: US6617319B2, “Methods of use for 2-deoxy ecdysterone” (Council of Science and Industrial Research, priority 2000, dated 2003)
# Where “and” joins values, the source holds several entries; their conditions need not be identical. Identical values can stand only once.
# Tests used:
# guinea pig uterus = type: cell-based
# Source text: A female virgin guinea pig that was in oestrous and weighing around 400-500 gm was used for the test. The animal was killed by a stunning blow on the head. The abdomen was immediately cut open. The uterus was dissected out and placed in a petri plate containing aerated De Jalon's solution (M. N Ghosh, in fundamentals of Experimental Pharmacology, 1984, second edition, Scientific book agency, Calcutta). The uterus was freed from fat and the two uterine horns were separated by cutting the lower end. Only one horn was used for the experiment. Two small loops of thread were made at each end of the uterus and kept in a tissue bath of 10 ml capacity containing aerated De Jalon's solution. The lower end was tied to the tissue holder and the upper end to the writing lever. The lever was balanced to provide a tension of 1 g with plasticene. The tissue was left in the bath for ½ hr for stabilisation before starting the experiment and the physiological solution (De Jalon's solution) was renewed every 10 minutes. This example illustrates the procedure used for the preparation of the guinea pig uterus for testing the oxytocic property of the pure white solid, 2-deoxy ecdysterone.
# After stabilisation, 2-3 doses of oxytocin (Parke Davis Ltd, Hyderabad) were added as standard to the physiological solution, the dose depending on the amplitude of contraction to obtain uniform contractions. The extract was then added to the bath (50 & 250 μg/ml) and allowed to act for one minute. If a contraction was observed during that one-minute period, extract was considered to be oxytocin-like and having oxytocic property. After every contraction, the tissue was immediately washed twice with the physiological solution and relaxed for 10 minutes. The same procedure was followed for the crude extract, fractions and the purified white solid, identified as 2-deoxy ecdysterone.
# The oxytocic activity of the crude, fractions and the pure compound was tested on the guinea pig uterus based on its ability to contract the relaxed uterus. The tissue was spiked with a standard oxytocic agent which induces contraction of the tissue. The efficacy of the testing agent was measured by its ability to contract the uterus by comparing the height of contraction with the standard oxytocin (Table 1). This example illustrates the procedure used for testing the crude extract and the detailed procedure followed.
# [1] = radiolabelled compound injected into human volunteers; within 5 hours; cited from earlier work
Compound,% response compared to standard PGF2α (guinea pig uterus),% response compared to standard oxytocin (guinea pig uterus),Inducing contractions in the guinea pig uterus (guinea pig uterus),Potency compared with standard oxytocin and PGF2α (guinea pig uterus),Radioactivity excreted in the urine [1]
2-deoxy ecdysterone,69.4% and 82.3% and 114.1%,80.8% and 92.3% and 118.0%,effective,more potent than the standard oxytocin and PGF2α,–
CCCCC[C@H](O)/C=C/[C@@H]1[C@@H](C/C=C\CCCC(=O)O)[C@@H](O)C[C@H]1O [PGF2α],–,–,–,–,around 90%
CCCCC[C@H](O)/C=C/[C@H]1[C@H](O)CC(=O)[C@@H]1C/C=C\CCCC(=O)O [PGE2],–,–,–,–,about 50%
